# Patent US20050084509A1, “Use of citric acid and low concentrations of alpha-hydroxy acids for superficial skin treatment” (priority 2003, published 2005)
# Columns and labels:
# skin = assay: low concentration citric acid peel self-administered in the home; assay type: in vivo, human
# signs of photoaging = assay: citric acid versus glycolic acid at equal concentration and same pH; assay type: in vivo, human
# ichthyosis = settings: in vivo; cited from earlier work
# photodamaged skin = assay: citric acid peels on photodamaged skin (office peel study); settings: 50 percent citric acid solution
# [1] = two months after last treatment
structure (smiles),measurement,setting,value
O=C(O)CC(O)(CC(=O)O)C(=O)O [citric acid],"subjective assessment of fine lines, wrinkles, enlarged pores, and brown spots","skin; 10 percent citric acid solution, three treatments at two-week intervals, two months after third treatment",statistically significant improvement
same,skin tolerance without neutralization,skin; ten percent citric acid,may be left on most people's skin without neutralization
same,reducing the signs of photoaging versus glycolic acid,signs of photoaging; equal concentration of glycolic acid at the same pH,more effective
same,side effects versus glycolic acid,signs of photoaging; glycolic acid of the same concentration,side effects are less
same,efficacy in treating ichthyosis,ichthyosis,highly effective
same,"fine lines and wrinkles, photographs evaluated by blinded observers","photodamaged skin; 2-5 min, neutralized, peels at one month intervals, evaluated two months after last treatment",statistically significant improvement
same,redness immediately following a peel,photodamaged skin; immediately after peel,increase in redness
same,"fine lines, wrinkles by Primos topographic image analysis",photodamaged skin; [1],"improvement in fine lines, wrinkles"
same,pore size by Primos topographic image analysis,photodamaged skin; [1],reduction in pore size
same,redness by cross-polarized photography,photodamaged skin; [1],no dramatic change in redness
